Source: paper PMC5354587, “Ergosterone-coupled Triazol molecules trigger mitochondrial dysfunction, oxidative stress, and acidocalcisomal Ca^2+ release in Leishmania mexicana promastigotes” (Microbial Cell, 2015)

What was measured:
Assay type in all cases: cell-based
[1] = test system: Leishmania mexicana promastigotes; assay: Mitochondrial membrane potential, Mitotracker Red CMXROS, flow cytometry; conditions: treatment up to 48 hours, flow cytometry
Protocol: In order to determine the energetic state of the mitochondrion after parasites treatment, the compound Mitotraker Red CMXROS was used. As described in the Materials and Methods section, parasites were treated for 6, 16, 24, and 48 hours with each molecule at its IC50, then incubated with Mitotraker Red CMXROS (50 nM) for 30 minutes under culture conditions, and finally analyzed by flow cytometry. […] Additionally, to rule out if Erg itself (the non-azole fraction of the conjugates) could be responsible for this hyperpolarization, parasites were treated with this compound and ΔΨmit was monitored for up to 48 hours by flow cytometry.
(§1) Mitotracker CMX Red(Invitrogen) was used to determine the mitochondrial membrane potential (Ψmit) of treated parasites. After 6, 16, 24, and 48 hours treatment, cells were incubated in culture medium with 50 nM Mitotracker CMX Red for 30 minutes at 26°C in the dark. Thereafter, parasites were washed twice with PBS, resuspended in 1 mL buffer, and analyzed using a cytometer (Beckman Coulter). Parasites incubated with valinomycin (500 nM for 30 minutes) were used as positive control. To evaluate the effect of ergosterone coupled molecules on the mitochondrial membrane potential immediately after molecule addition we used the fluorophore rhodamine-123, a mitochondrion-specific cationic dye, which distributes across the inner mitochondrial membranes strictly according to their membrane potential, as described before. Briefly, 1 x 10^7 parasites were washed twice with rhodamine 123 loading buffer (20 mM Tris-HCl, 130 mM KCl, 1 mM MgCl2, and 2 mM KH2PO4) and incubated with 20 μM rhodamine 123 for 45 minutes at 29°C under agitation. Samples were washed twice, resuspended in 500 μL of the same buffer, and transferred to a quartz cuvette. Fluorescence (ex 488 nm and em 530 nm) was registered in a Hitachi F-7000 Spectrofluorimeter. FCCP was used as control for mitochondrial membrane depolarization.

[2] = test system: Leishmania mexicana promastigotes; assay: Mitochondrial membrane potential immediately after addition, rhodamine 123; conditions: Erg-GTr 1.4 μM or Erg-GTr2 2.3 μM
Protocol: As the Leishmania mitochondrion seems to be involved in [Ca^2+]cyt regulation and can also accumulate Ca^2+ [9], the effect of Erg-GTr and Erg-GTr2 was analyzed immediately after its addition to parasites preloaded with rhodamine 123.
as §1, with “Samples were washed twice, resuspended in 500 μL of the same buffer, and transferred to a quartz cuvette.” left out, “FCCP was used as control for mitochondrial membrane depolarization.” left out

[3] = test system: Leishmania mexicana promastigotes; assay: Alkalinization of acidocalcisomes, acridine orange; conditions: Erg-GTr 1.4 μM or Erg-GTr2 2.4 μM; nigericin 2 μM as control
Text: Leishmania can store Ca^2+ in different compartments like the endoplasmic reticulum, the mitochondrion, and the acidocalcisomes. The major Ca^2+ reservoir is represented by this last organelle. In order to analyze if the [Ca^2+]cyt increase is due to its release from acidocalcisomes, parasites were charged with acridine orange and assayed fluorimetrically. Since acridine orange accumulates in acidic compartments, it allows detection of alkalinization.
To evaluate the effect of ergosterone coupled molecules on the Ca^2+ reservoir organelle acidocalcisome, parasites were stained with acridine orange as described previously. Briefly, 1 x 10^7 parasites were washed twice with loading buffer (20 mM Tris-HCl, 130 mM KCl, 1 mM MgCl2, and 2 mM KH2PO4) and incubated for 5 minutes with acridine orange (5 μM). Samples were washed twice, resuspended in 500 μL of the same buffer, and transferred to a stirred quartz cuvette at 29°C. Fluorescence (ex 488 nm and em 530 nm) was registered in a Hitachi F-7000 Spectrofluorimeter. Nigericin was used as control for acidocalcisome alkalinization.

[4] = test system: Leishmania mexicana promastigotes; assay: DNA content analysis with propidium iodide (cell cycle, SubG1); conditions: 1.4 μM Erg-GTr or 2.3 μM Erg-GTr2, 48 hours
Protocol: In order to analyze if Erg-GTr molecules influence the normal cell cycle distribution, the DNA content of treated cells was evaluated using propidium iodide.
Figure 4 FIGURE 4: Analysis of the DNA content in L. mexicana promastigotes. Treated (1.4 μM Erg-GTr or 2.3 μM Erg-GTr2) or control cells (DMSO) were harvested at different time points and prepared for determination of DNA content. Acquisition was performed in arithmetic scale to obtain G1 and G2/M peaks and in logarithmic scale to earn the subG1 peak. (A) Percentage of cells in the different phases of the cell cycle after 24 and 48 hours treatment. (B) SubG1 peak in percentage after 16, 24 and 48 hours drug contact. Quantification was carried out using the WinMDI software. The bars represent the mean+/-S.D. of three individual cultures measured at each time point.
Propidium iodide was used to determinate the DNA content in parasites after treatment. 1 x 10^6 parasites were washed with PBS and resuspended in 100 μL lysis buffer (7.7 mM Na2HPO4, 2.3 mM KH2PO4) containing 6 μM digitonin. Samples were incubated at 4°C for 30 minutes. Finally, 400 μL staining buffer (20 μg/mL propidium iodide in PBS) was added to each sample. Samples were kept on ice in the dark until their analysis in the cytometer (Beckman Coulter).

[5] = test system: Leishmania mexicana promastigotes; assay: Annexin V-AlexaFluor488/propidium iodide double staining, flow cytometry; conditions: Erg-GTr 1.4 μM or Erg-GTr2 2.3 μM
Protocol: The effect of Erg-GTr and Erg-GTr2 was further analyzed to determine the cell death mechanism. Asymmetry of the plasma membrane is loosed when cell death processes are activated. The Annexin V-AlexaFluor488/propidium iodide double staining was used to detect phosphatidylserine (PS) in the outer leaflet of the plasma membrane using flow cytometry after parasite treatment. Cells were incubated for 24 and 48 hours with Erg-GTr (1.4 μM) or Erg-GTr2 (2.3 μM). […] At this time, the integrity of the plasma membrane was still intact, as evidenced by a low PI staining (5% or lower). After 48 hours, the percentage of Annexin V positive cells increased to reach more than 60% (Erg-GTr) or was maintained at around 40% in the case of Erg-GTr2 (Figure 2B). […] This phenomenon has been reported as a criterium of the late stage of cell death processes.
The annexin V-AlexaFluor 488 (Invitrogen) was used following the manufacture recommendations. Briefly, 1 x 10^6 parasites were washed with PBS and incubated with annexin V and propidium iodide (0.05 mg x mL^-1) in 100 μL binding buffer for 15 minutes. Final volume was adjusted at 500 μL and samples were immediately analyzed in a Beckman Coulter Gallios Cytometer.

## CC(C)C(C)C=CC(C)C1CCC2C3=CC(=NNC(=O)n4cnnc4)C4(O)CC(=O)CCC4(C)C3CCC21C (centres unmarked) [Erg-GTr, [1,2,4]triazole-4-carboxylic acid [5-hydroxy-10,13-dimethyl-3-oxo-17-(1,4,5-trimethyl-hex-2-enyl)-1,2,3,4,5,9,10,11,12,13,14,15,16,17-tetradecahydro-cyclopenta[a]phenanthren-6-ylidene]-hydrazide]
[1]
  effect on inner mitochondrial membrane potential (ΔΨmit): hyperpolarize
[2]
  rhodamine 123 fluorescence (depolarization of mitochondrial membrane potential): slow fluorescence increase
[3]
  acridine orange fluorescence (acidocalcisome alkalinization): rapid fluorescence increase
[4]
  cell cycle arrest in the G2/M phase: moderate
[5]; 24 hours
  PI staining: ≤ 5%
  PS exposure, percentage of the cell population: 40.2%
[5]; 48 hours
  PI positive cells: 31%
  percentage of Annexin V positive cells: more than 60%
